According to US20230027361A1, “METTL3 MODULATORS” (priority 2019, published 2023):

target: METTL3/METTL14 (Homo sapiens, UniProt Q86U44); assay: METTL3-14 Standard Enzyme Assay (METTL3 biochemical assay); settings: METTL3 biochemical assay; read-out: METTL3 IC50
In short: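 Tritium transfer from ³H-SAM (100 nM) to biotinylated RNA (100 nM) captured on streptavidin flashplates and counted by scintillation. Enzyme complex (2.5 nM) with compound, 5 min preincubation, 30 min reaction at ambient temperature, HEPES pH 7.5 buffer, stopped by excess unlabeled SAM.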

Chain of METTL3/METTL14 (Q86U44 whole entry, species assumed): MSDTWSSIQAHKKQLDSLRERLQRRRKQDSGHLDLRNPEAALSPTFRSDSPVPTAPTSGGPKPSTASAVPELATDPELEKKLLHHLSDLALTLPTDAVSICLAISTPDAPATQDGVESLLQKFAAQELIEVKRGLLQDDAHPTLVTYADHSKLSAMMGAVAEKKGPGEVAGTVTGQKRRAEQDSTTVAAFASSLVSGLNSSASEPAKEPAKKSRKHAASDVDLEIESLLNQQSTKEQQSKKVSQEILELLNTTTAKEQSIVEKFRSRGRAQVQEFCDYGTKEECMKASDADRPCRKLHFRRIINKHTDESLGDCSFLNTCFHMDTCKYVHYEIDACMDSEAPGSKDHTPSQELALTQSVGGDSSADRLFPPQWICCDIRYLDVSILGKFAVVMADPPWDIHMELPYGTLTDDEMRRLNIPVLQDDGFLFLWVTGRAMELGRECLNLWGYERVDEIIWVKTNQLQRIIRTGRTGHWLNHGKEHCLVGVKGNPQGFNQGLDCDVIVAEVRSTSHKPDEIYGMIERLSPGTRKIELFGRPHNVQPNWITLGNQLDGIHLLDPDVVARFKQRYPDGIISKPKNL
Chain of METTL3/METTL14 (Q9HCE5 whole entry partner, species assumed): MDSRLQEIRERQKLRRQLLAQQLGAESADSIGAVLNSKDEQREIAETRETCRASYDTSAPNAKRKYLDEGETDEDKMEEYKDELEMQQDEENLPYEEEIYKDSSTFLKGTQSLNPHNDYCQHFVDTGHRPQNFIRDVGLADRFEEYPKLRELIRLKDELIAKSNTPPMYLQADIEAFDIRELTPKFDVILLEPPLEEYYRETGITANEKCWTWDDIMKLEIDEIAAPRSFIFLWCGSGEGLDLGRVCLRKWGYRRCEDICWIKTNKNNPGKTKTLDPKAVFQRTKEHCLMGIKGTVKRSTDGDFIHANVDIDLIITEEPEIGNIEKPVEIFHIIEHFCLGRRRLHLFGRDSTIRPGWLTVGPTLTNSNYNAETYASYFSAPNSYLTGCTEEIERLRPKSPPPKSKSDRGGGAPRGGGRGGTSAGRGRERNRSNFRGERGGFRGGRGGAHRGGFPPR

SMILES | IC50
CCNc1ccc2ccc(OC[C@H]3O[C@@H](n4ccc5c(N)ncnc54)[C@@H](F)[C@@H]3O)cc2n1 [I-5] | < 10 nM
Nc1ccnc2cc(OC[C@H]3O[C@@H](n4cc(Br)c5c(N)ncnc54)[C@@H](F)[C@@H]3O)ccc12 [I-13] | 100 to 1000 nM
Cc1cc(N)c2ccc(OC[C@H]3O[C@@H](n4cc(Br)c5c(N)ncnc54)C[C@@H]3O)cc2n1 [I-19] | 100 to 1000 nM
CN(C)Cc1cccc(OC[C@H]2O[C@@H](n3cc(Br)c4c(N)ncnc43)[C@@H](F)[C@@H]2O)c1 [I-31] | > 1000 nM
CNc1ccc2ccc(OC[C@H]3O[C@@H](n4cc(C5=CCNC5)c5c(N)ncnc54)[C@@H](F)[C@@H]3O)cc2n1 [I-32] | 10 to 100 nM
CNc1ccc2ccc(OC[C@H]3O[C@@H](n4cc(C5=CCN(C)CC5)c5c(N)ncnc54)[C@@H](F)[C@@H]3O)cc2n1 [I-35] | 10 to 100 nM

target: METTL1/WDR4 (Homo sapiens, UniProt Q9UBP6); assay: METTL1 Assay (METTL1 biochemical assay); settings: METTL1 biochemical assay; read-out: METTL1 IC50
In short: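 Radiometric methyltransfer by METTL1/WDR4 (6.25 nM f.c., 5 min preincubation) at ambient temperature in HEPES pH 7.5, KCl, MgCl2, DTT; started with 25 nM 3′-biotinylated RNA and 60 nM 3H-SAM, run 20 min, quenched with 15 μM cold SAM. Product captured on streptavidin flashplates (2 h, 25° C), counted by scintillation.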

Chain of METTL1/WDR4 (Q9UBP6 whole entry, species assumed): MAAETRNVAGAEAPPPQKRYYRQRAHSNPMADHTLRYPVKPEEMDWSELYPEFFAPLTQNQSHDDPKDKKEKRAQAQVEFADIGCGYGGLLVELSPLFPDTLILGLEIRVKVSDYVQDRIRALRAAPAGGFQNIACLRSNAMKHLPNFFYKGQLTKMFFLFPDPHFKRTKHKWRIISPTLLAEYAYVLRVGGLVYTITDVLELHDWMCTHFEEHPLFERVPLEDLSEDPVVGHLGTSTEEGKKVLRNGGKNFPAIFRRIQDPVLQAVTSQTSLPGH
Chain of METTL1/WDR4 (P57081 whole entry partner, species assumed): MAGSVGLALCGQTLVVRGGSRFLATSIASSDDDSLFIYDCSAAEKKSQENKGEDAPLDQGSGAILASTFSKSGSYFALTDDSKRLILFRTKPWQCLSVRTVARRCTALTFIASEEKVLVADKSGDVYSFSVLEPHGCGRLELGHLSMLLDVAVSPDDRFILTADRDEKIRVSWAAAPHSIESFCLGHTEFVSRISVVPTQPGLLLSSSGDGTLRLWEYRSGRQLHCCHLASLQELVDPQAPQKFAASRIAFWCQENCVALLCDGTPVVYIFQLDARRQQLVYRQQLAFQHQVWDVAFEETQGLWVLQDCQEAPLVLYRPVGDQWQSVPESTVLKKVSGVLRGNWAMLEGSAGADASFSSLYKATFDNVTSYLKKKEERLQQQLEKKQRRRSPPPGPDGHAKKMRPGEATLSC

SMILES | IC50
CCNc1ccc2ccc(OC[C@H]3O[C@@H](n4ccc5c(N)ncnc54)[C@@H](F)[C@@H]3O)cc2n1 [I-5] | > 1000 nM

same assay, conditions: read-out: METTL1 IC50; METTL1 biochemical assay

SMILES | IC50
Cc1cc(N)c2ccc(OC[C@H]3O[C@@H](n4cc(Br)c5c(N)ncnc54)C[C@@H]3O)cc2n1 [I-19] | > 1000 nM
CN(C)Cc1cccc(OC[C@H]2O[C@@H](n3cc(Br)c4c(N)ncnc43)[C@@H](F)[C@@H]2O)c1 [I-31] | > 1000 nM
CNc1ccc2ccc(OC[C@H]3O[C@@H](n4cc(C5=CCNC5)c5c(N)ncnc54)[C@@H](F)[C@@H]3O)cc2n1 [I-32] | > 1000 nM
CNc1ccc2ccc(OC[C@H]3O[C@@H](n4cc(C5=CCN(C)CC5)c5c(N)ncnc54)[C@@H](F)[C@@H]3O)cc2n1 [I-35] | > 1000 nM

target: T1, METTL16 (Homo sapiens, UniProt Q86W50); assay: METTL16 Assay (METTL16 biochemical assay); settings: read-out: METTL16 IC50
T1 sequence (Q86W50 1-562): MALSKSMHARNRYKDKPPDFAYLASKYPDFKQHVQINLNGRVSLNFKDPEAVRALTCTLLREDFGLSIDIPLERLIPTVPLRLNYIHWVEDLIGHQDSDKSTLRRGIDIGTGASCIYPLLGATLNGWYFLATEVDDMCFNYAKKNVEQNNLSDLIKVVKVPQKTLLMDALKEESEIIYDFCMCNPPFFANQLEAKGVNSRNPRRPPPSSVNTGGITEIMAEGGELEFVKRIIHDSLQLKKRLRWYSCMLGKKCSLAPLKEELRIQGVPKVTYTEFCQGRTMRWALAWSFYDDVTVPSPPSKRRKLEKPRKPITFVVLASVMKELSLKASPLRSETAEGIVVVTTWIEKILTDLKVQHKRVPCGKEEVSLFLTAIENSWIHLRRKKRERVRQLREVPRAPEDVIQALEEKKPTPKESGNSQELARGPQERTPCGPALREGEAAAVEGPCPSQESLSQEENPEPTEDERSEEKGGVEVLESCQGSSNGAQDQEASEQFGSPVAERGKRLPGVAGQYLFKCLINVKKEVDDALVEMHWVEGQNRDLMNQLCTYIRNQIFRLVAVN
Description: Assays were performed in a 25 μl-volume in 384-well V-bottom polypropylene microplates (Greiner Bio-One, cat. No. 781280) at ambient temperature. Optimized 1× assay buffer was 20 mM HEPES pH 7.5, 50 mM KCl, 1 mM DTT, 0.01% Tween, 0.01% BSG, 0.004 U/μl RNAseOUT (cat. No. 10777019, ThermoFisher Scientific, Waltham, Mass.). For compound screening METTL16 (final concentration, f.c.=100 nM) was added using a Multidrop Combi (ThermoFisher Scientific, Waltham, Mass.) and preincubated for 5 min. Reactions were started by adding 3′ biotinylated RNA ([…]-biotin) (f.c.=50 nM), 3H-SAM (f.c.=200 nM) and non-radiolabeled SAM (f.c.=800 nM) substrates. Reactions proceeded for 20 minutes and were quenched with excess non-radioactive SAM (f.c.=100 μM). The reactions were then transferred to streptavidin-coated flashplates and incubated for 2 hours at 25° C. Following two washing cycles with 0.1% Tween-20, the plates were sealed and read on a TopCount (PerkinElmer, Waltham, Mass.) plate-based scintillation counter. For determination of kinetic parameters, reaction times were optimized so that measurements were taken during the initial velocity phase of the reaction.

SMILES | IC50
Nc1ccnc2cc(OC[C@H]3O[C@@H](n4cc(Br)c5c(N)ncnc54)[C@@H](F)[C@@H]3O)ccc12 [I-13] | > 1000 nM
Cc1cc(N)c2ccc(OC[C@H]3O[C@@H](n4cc(Br)c5c(N)ncnc54)C[C@@H]3O)cc2n1 [I-19] | > 1000 nM
CN(C)Cc1cccc(OC[C@H]2O[C@@H](n3cc(Br)c4c(N)ncnc43)[C@@H](F)[C@@H]2O)c1 [I-31] | > 1000 nM
CNc1ccc2ccc(OC[C@H]3O[C@@H](n4cc(C5=CCNC5)c5c(N)ncnc54)[C@@H](F)[C@@H]3O)cc2n1 [I-32] | > 1000 nM
CNc1ccc2ccc(OC[C@H]3O[C@@H](n4cc(C5=CCN(C)CC5)c5c(N)ncnc54)[C@@H](F)[C@@H]3O)cc2n1 [I-35] | > 1000 nM

target: PRMT5-MEP50 (Homo sapiens, UniProt O14744); assay: PRMT5 Assay (PRMT5 biochemical assay); settings: PRMT5 biochemical assay; read-out: PRMT5 IC50
In short: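 Radiometric methyltransferase read-out: after 60 min reaction, excess unlabelled SAM (15 μM) stops turnover and biotinylated H4 peptide (100 nM) carrying 3H-methyl from 250 nM 3H-SAM is captured on streptavidin flashplates (2 h, 25° C) for scintillation counting. Enzyme, 2.5 nM PRMT5-MEP50, was preincubated 5 min with compound in pH 8.0 Tris buffer with DTT and Tween.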

Chain of PRMT5-MEP50 (O14744 whole entry): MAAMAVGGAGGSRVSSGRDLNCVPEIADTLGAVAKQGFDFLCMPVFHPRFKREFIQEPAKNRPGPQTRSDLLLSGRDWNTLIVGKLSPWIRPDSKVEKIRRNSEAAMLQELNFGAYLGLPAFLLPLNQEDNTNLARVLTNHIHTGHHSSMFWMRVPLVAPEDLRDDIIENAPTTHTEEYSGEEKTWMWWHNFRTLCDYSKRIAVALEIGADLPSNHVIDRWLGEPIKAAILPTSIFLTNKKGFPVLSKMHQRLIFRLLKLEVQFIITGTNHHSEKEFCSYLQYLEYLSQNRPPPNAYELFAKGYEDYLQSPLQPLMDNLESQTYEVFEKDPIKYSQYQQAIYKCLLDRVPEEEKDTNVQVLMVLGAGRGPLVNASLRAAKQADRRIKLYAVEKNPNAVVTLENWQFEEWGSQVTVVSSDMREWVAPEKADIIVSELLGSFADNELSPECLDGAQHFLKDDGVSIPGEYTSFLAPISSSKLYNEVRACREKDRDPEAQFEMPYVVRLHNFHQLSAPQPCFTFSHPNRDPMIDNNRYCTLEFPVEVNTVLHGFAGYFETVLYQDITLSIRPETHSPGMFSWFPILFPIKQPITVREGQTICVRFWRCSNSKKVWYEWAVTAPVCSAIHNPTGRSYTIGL
Chain of PRMT5-MEP50 (Q9BQA1 whole entry partner): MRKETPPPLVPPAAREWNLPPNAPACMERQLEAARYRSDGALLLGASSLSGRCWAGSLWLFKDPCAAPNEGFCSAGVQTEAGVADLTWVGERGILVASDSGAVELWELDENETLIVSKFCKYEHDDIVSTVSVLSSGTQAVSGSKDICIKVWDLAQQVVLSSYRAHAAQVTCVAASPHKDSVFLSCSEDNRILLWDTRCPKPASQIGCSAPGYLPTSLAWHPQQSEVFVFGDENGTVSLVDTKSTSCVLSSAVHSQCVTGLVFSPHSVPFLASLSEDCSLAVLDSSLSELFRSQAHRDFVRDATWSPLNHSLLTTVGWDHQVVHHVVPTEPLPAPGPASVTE

SMILES | IC50
CCNc1ccc2ccc(OC[C@H]3O[C@@H](n4ccc5c(N)ncnc54)[C@@H](F)[C@@H]3O)cc2n1 [I-5] | 10 to 100 nM
Nc1ccnc2cc(OC[C@H]3O[C@@H](n4cc(Br)c5c(N)ncnc54)[C@@H](F)[C@@H]3O)ccc12 [I-13] | 10 to 100 nM
Cc1cc(N)c2ccc(OC[C@H]3O[C@@H](n4cc(Br)c5c(N)ncnc54)C[C@@H]3O)cc2n1 [I-19] | 100 to 1000 nM
CN(C)Cc1cccc(OC[C@H]2O[C@@H](n3cc(Br)c4c(N)ncnc43)[C@@H](F)[C@@H]2O)c1 [I-31] | 100 to 1000 nM
CNc1ccc2ccc(OC[C@H]3O[C@@H](n4cc(C5=CCNC5)c5c(N)ncnc54)[C@@H](F)[C@@H]3O)cc2n1 [I-32] | 100 to 1000 nM
CNc1ccc2ccc(OC[C@H]3O[C@@H](n4cc(C5=CCN(C)CC5)c5c(N)ncnc54)[C@@H](F)[C@@H]3O)cc2n1 [I-35] | 100 to 1000 nM

tested on: m6A in cellular mRNA of MOLM-13 cells; assay: m6A-mRNA LC-MS/MS Assay (m6A cellular assay); format: cell-based; settings: Homo sapiens, MOLM-13; m6A cellular assay; read-out: m^6A IC50
Description: Cells were harvested by centrifugation followed by mRNA extraction using DIRECT Dynabeads mRNA DIRECT kit (Life Technologies). mRNA was quantified on NanoDrop spectrophotometer (Thermo Fisher Scientific) and digested into single nucleosides using Nucleoside Digestion Mix (New England Biolabs). […] Quantification is performed in comparison with the standard curve, obtained from pure nucleoside standards (Selleck Chemicals) running with the same batch of samples. Percentage m^6A in cellular mRNA is calculated as 100*(m^6A/A).

SMILES | IC50
CCNc1ccc2ccc(OC[C@H]3O[C@@H](n4ccc5c(N)ncnc54)[C@@H](F)[C@@H]3O)cc2n1 [I-5] | 1 to 10 µM

tested on: MOLM-13 cells; assay: MOLM-13 96 Hour Cell Proliferation Assay; format: cell-based; settings: Homo sapiens, MOLM-13, 96 h
Description: MOLM-13 (DSMZ) cells were seeded at 600 cells per well in a volume of 44 μL in a Greiner Bio-One CELLSTAR™ 384 Well Polystyrene Cell Culture clear bottom microplate in RPMI 1640 media containing 10% fetal bovine serum using a Multidrop Combi (ThermoFisher Scientific). Cells were incubated overnight at 37° C. in a humidified tissue culture incubator. To prevent evaporation or to reduce edge effect, add 50 μL or more H2O to an empty plate, cover, and place on top of the cell plates. The Mosquito® HTS Liquid Handler was used to make a compound/media intermediate plate by aliquoting 1 μL of compound from the initial compound dilution plate (concentrations ranging from 10.0 mM to 38.0 nM in 100% DMSO) into Bio-One 384-well polypropylene conical bottom microplate containing 49 μL of media containing the appropriate serum (50-fold dilution, 2% DMSO, compound concentrations ranging from 200.0 μM and […]). The Apricot liquid handling system was used to transfer 6.2 μL compounds from the intermediate plate into the seeding plate containing 44 μL cells (8-fold dilution spanning concentrations 25.0 μM to […], 0.25% DMSO final), and placed in a humidified tissue culture incubator at 37° C. After 96 hours, 25 μL of Cell Titer-Glo reagent (Promega) was added to each well using an Integra liquid handling system. The plate was protected from light using TopSeal-A (Black) film over the entire plate, added White Bottom seal film on the bottom of the entire plate for a better reading on the Envision, and placed on an IKA plate shaker for at 300 rpm for 10 minutes at room temperature. The plate was read on an EnVision plate reader (Perkin Elmer) using the Ultra Sensitive Luminescence protocol. Data analysis was performed by normalizing the raw luminescence units to an average of the positive control values for staurosporine (100% cell death) and the negative control values for DMSO (0% cell death). An IC50 was calculated using a 4-parameter logistic nonlinear regression model in GraphPad Prism.

SMILES | IC50
Nc1ccnc2cc(OC[C@H]3O[C@@H](n4cc(Br)c5c(N)ncnc54)[C@@H](F)[C@@H]3O)ccc12 [I-13] | > 10 µM
Cc1cc(N)c2ccc(OC[C@H]3O[C@@H](n4cc(Br)c5c(N)ncnc54)C[C@@H]3O)cc2n1 [I-19] | > 10 µM
